The target of experiment [1] is T1, Vitamin D3 receptor (Homo sapiens, UniProt P11473).
T1 sequence (P11473 whole entry): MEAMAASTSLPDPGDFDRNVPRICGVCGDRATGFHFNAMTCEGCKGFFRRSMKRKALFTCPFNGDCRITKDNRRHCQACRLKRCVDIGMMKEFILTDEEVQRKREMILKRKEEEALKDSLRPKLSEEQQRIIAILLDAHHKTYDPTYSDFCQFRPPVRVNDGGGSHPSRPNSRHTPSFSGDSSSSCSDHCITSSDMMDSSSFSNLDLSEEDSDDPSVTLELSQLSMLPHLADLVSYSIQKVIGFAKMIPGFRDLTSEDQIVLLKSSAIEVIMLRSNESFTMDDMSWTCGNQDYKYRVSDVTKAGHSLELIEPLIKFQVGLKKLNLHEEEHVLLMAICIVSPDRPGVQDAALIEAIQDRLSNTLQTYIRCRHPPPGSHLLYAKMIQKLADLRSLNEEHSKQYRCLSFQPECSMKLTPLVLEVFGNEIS
The experiment in a line: […] of human VDR induced-transcriptional transactivation of luciferase reporter gene in COS7 cells after 24 hrs. Type of experiment: cell-based, COS-7.

The target in experiment [2] is T2, Vitamin D3 receptor (Rattus norvegicus) (UniProt P13053).
T2 sequence (whole entry): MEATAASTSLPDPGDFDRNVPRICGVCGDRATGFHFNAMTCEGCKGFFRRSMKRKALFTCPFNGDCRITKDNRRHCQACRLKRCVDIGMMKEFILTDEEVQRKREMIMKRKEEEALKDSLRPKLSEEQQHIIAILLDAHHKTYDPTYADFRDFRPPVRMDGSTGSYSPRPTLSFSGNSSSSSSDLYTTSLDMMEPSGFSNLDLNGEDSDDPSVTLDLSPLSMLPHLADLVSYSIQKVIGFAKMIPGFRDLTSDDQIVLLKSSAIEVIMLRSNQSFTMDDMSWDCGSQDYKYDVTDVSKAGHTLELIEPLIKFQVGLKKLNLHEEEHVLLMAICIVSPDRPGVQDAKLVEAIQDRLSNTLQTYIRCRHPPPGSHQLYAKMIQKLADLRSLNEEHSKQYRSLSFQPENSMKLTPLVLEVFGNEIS
In words: Displacement of [3H]1-alpha,25-(OH)2D3 from rat recombinant VDR ligand-binding domain expressed in Escherichia coli BL21 realtive to 1-alpha,25-(OH)2D3. In general terms: Loss of bound radioactivity is the signal in a displacement assay; it reports binding, not function.

Experiment [3] concerns the target T3, Vitamin D3 receptor (Homo sapiens) (UniProt P11473).
T3 sequence (whole entry): T1 sequence (P11473 whole entry)
The experiment in a line: Displacement of [3H]1-alpha,25-(OH)2D3 from thymus VDR realtive to 1-alpha,25-(OH)2D3.

The target in experiment [4] is T3, Vitamin D3 receptor (Homo sapiens). The experiment in a line: […] of human VDR induced-transcriptional transactivation of luciferase reporter gene in COS7 cells after 24 hrs relative to 1-alpha,25-(OH)2D3. It is filed as cell-based. The note with it: COS-7. In general terms: A reporter such as luciferase makes a cellular process visible.

Molecules are shown by their SMILES. “And” between values parts separate entries of the source, which are not always exact repeats. Equal values may be shown once.

A word on the EC50: it is the concentration that produces a half-maximal response. High values mean a less potent agent, low ones a more potent agent. `C[C@H](CCCC(C)(C)O)C1CCC2/C(=C/C=C3C[C@@H](O)C(=CCF)[C@H](O)C3)CCCC21C` (some centres undefined) [listing 1 of 3 here] showed an EC50 in experiment [1] of 0.5 nM.
With `C[C@@H](CCCC(C)(C)O)C1CCC2/C(=C/C=C3C[C@@H](O)C(=CCF)[C@H](O)C3)CCCC21C` (some centres undefined) [listing 1 of 3 here], the Activity in experiment [2] is 0.07% and 1.08%.
Still for that read-out and setting: in the case of `C[C@H](CCCC(C)(C)O)C1CCC2/C(=C/C=C3C[C@@H](O)C(=CCF)[C@H](O)C3)CCCC21C` (some centres undefined) [listing 2 of 3 here] it was 0.77% and 0.05%.
In experiment [1], `C[C@H](CCCC(C)(C)O)C1CCC2/C(=C/C=C3C[C@@H](O)C(=CCF)[C@H](O)C3)CCCC21C` (some centres undefined) [listing 3 of 3 here] gave an EC50 of 2.2 nM.
The same measure, in the same setting: in the case of `C[C@@H](CCCC(C)(C)O)C1CCC2/C(=C/C=C3C[C@@H](O)C(=CCF)[C@H](O)C3)CCCC21C` (some centres undefined) [listing 2 of 3 here] it was 1.1 nM; in that of `C[C@@H](CCCC(C)(C)O)C1CCC2/C(=C/C=C3C[C@@H](O)C(=CCF)[C@H](O)C3)CCCC21C` (some centres undefined) [listing 3 of 3 here], 0.07 nM.
Take `C[C@@H](CCCC(C)(C)O)C1CCC2/C(=C/C=C3C[C@@H](O)C(=CCO)[C@H](O)C3)CCCC21C` (some centres undefined): the Activity was 0.02% and 1.6% in experiment [3]; 4.2 and 12.5 in experiment [4].
As for `C[C@H](CCCC(C)(C)O)C1CCC2/C(=C/C=C3C[C@@H](O)C(=CCO)[C@H](O)C3)CCCC21C` (some centres undefined), the Activity in experiment [3] was 2% and 0.007%.

The values above are taken from ChEMBL document CHEMBL1142881, “Structure-activity relationships of 19-norvitamin D analogs having a fluoroethylidene group at the C-2 position” (Bioorg Med Chem, 2007).
